These results are taken from patent publication US20100222421A1, “Usage of Baicalein in the Preparation of a Pharmaceutical Composition for the Treatment of Traumatic Brain Injury” (National Defense Medical Center, priority 2009, published 2010).

The structures appear in SMILES notation.

What all share (type): in vivo, rat
Experiment [1] has as its system rats with controlled cortical impact (CCI) injury. The experiment in a line: Pilot dose-selection studies, behavioural deficits. Conditions: 10 and 30 mg kg^-1 tested, result for 30 mg kg^-1 (unpublished observations). Here is the method: Baicalein (30 mg kg^−1) dissolved in 10% dimethyl sulphoxide (0.25-0.3 mL) or a corresponding volume of vehicle (10% dimethyl sulphoxide) was administered i.p. immediately following injury or daily for 4 days (immediately, 25, 49 and 73 h) after injury. Behaviour testing using the rotarod, tactile adhesive removal, mNSS and beam walk tests was performed at 28 hours as well as 4, 7, 14, 21 and 28 days post-injury. At 14 and 28 days, the animals were killed, perfused intravascularly and their brains were processed with cresyl violet staining to assess contusion volume (n=8 for each group).

Experiment [2] shares this test system. The experiment in a line: Rotarod test after CCI injury. Particulars: for performance on the rotarod test versus vehicle-treated rats: days 1 to 28, P<0.05. Here is the method:
(§1) A previously described CCI injury procedure was utilized (Chen et al., 2003). Male Sprague-Dawley rats, which have body weight of 250-300 g, were anaesthetized with sodium pentobarbital (i.p.; 50 mgkg^−1; Rhone Merieux, Harlow, UK) and placed in a stereotaxic frame. A 5-mm craniotomy was performed over the left parietal cortex, centered on the coronal suture and 3 mm lateral to the sagittal suture. Considerable care was taken to avoid injury to the underlying dura. Injury was made using a pneumatic piston with a rounded metal tip (2.5 mm diameter) that was angled 22.5° C. to the vertical so that the tip was perpendicular with the brain surface at the centre of the craniotomy. A velocity of 4 ms^−1 and a deformation depth 2 mm below the dura were used. The bone flap was immediately replaced and sealed, and the scalp was closed with sutures. Body temperature was monitored throughout the surgery by a rectal probe; temperature was maintained at 37.0±0.5° C. using a heated pad. Rats were placed in a heated cage to maintain body temperature, while recovering from anaesthesia.
Baicalein (30 mg kg^−1) dissolved in 10% dimethyl sulphoxide (0.25-0.3 mL) or a corresponding volume of vehicle (10% dimethyl sulphoxide) was administered i.p. immediately following injury or daily for 4 days (immediately, 25, 49 and 73 h) after injury. Behaviour testing using the rotarod, tactile adhesive removal, mNSS and beam walk tests was performed at 28 hours as well as 4, 7, 14, 21 and 28 days post-injury. […]
An accelerating rotarod was used to measure rat motor function and balance (Hamm, 2001). Each rat was placed on the rotarod cylinder, and the time for which the animal remained on the rotarod was measured. […] One hour before CCI, the mean duration on the device was recorded with three rotarod measurements as the pre-injury baseline values. Post-injury latencies were expressed as a percentage of their respective baseline values to reduce inter-animal variability.
(In general: The rotarod test checks motor coordination on a turning rod.)

In experiment [3] the test system is IL-1β-positive cells. In words: Immunohistochemistry, IL-1β-positive cells after CCI injury. Particulars: single-dose 30 mg kg^-1 i.p.; cortical tissue adjacent to contusion core, 1 day post-injury. Here is the method:
as §1, with “[…] Testing after injury was as follows: (1) real-time quantitative RT-PCR analysis for TNF-α, IL-1β and IL-6 mRNA expression at 6 h post-injury (n=7 for each group); (2) FluoroJade B (FJB) staining, TNF-α, IL-1β and IL-6 immunohistochemistry, as well as ELISA at 24 h post-injury” for “Rats were placed in a heated cage”, “assess degenerative neurons and to determine cytokine expression (n=7 for each group). […]” for “maintain body temperature, while recovering from anaesthesia.”

`O=c1cc(-c2ccccc2)oc2cc(O)c(O)c(O)c12` [baicalein]: in experiment [1], the “neuroprotective effects in improving behavioural deficits” value is given as “found to have neuroprotetcive effects”. Further, the “rotarod test, multiple-dose versus single-dose treatment” value in experiment [2] (30 mg kg^-1 i.p., days 1, 4, 7 and 21 after injury) is listed as “significantly more effective”. The “performance on the rotarod test versus vehicle-treated rats” value in experiment [2] (multiple-dose 30 mg kg^-1 i.p. daily for 4 days) and in experiment [2] (single-dose 30 mg kg^-1 i.p. immediately after injury) was “significantly better” throughout. Besides, the “reduction in IL-1β-positive cells relative to vehicle” value in experiment [3] is 40%.
